From patent US20220370586A1, “METHOD OF GENERATING ACTIVATED T CELLS FOR CANCER THERAPY” (Cedars-Sinai Medical Center, priority 2019, published 2022)

Assays:
B16 melanoma = B16 melanoma implantation in C57 BL mice; assay type: in vivo
Procedure: After implantation of B16 melanoma, C57 BL mice underwent treatment with 11702 GITR agonist or DMSO control. (A) Animals lived longer after GITR agonist intraperitoneal 30 mg/kg treatment twice per week (p=0.0333, log rank). (B) Tumor volume was inhibited in 11702 treated animals (p<0.05, Anova).
After implantation of B16 melanoma, C57 BL mice underwent treatment with 11702 GITR agonist or DMSO control. […] (B) Tumor volume was inhibited in 11702 treated animals (p<0.05, Anova).

T effector cells = assay: T cell suppression assay (CFSE proliferation of T effector cells, FACS); assay type: cell-based, human; conditions: for effect on T effector cell proliferation (in words): T cell activation by antigen presenting cells, with or without Tregs; for increase of T cell expansion compared to T control group (without molecule): with T-reg (1:1)
Text: PBMC was isolated (Ficoll, GE Healthcare) from the WBC cone collected from healthy platelet donor. Cells were washed and passed through 40 um cell strainer before being stained with T cell surface antibodies. Then cells were put on cell sorter (BD FACSARIA III). Specific cell populations were collected as follows: CD4^+CD25^− cells (T effector cells), CD4^+CD25^+CD45RA^+CD127^− cells (T regulatory cells) and CD3^− cells (serve as Antigen Presenting Cells, APC). T effector cells were labeled with CellTrace CFSE (Invitrogen), heavily washed before cell number counting. Effector cells and T-regs were then mixed together at 1:1 ratio in culture media (RPMI 1640, 10% FBS, Pen-Strep and 1% NEAA) which enhanced with anti-CD3 (3 ug/ml) anti-CD28 (2 ug/ml) antibodies. APCs were treated with Mitomycin (50 ug/ml) for 30 minutes at 37° C., 5% CO2 incubator, then added to culture mix (APC:T-eff 2:1) as a proliferation co-stimulator. Cell mixture was incubated at 37° C., 5% CO2 for 6 days before being re-stained with T cell surface markers (CD4, CD25) and sent for FACS analysis (FIGS. 1A-1B, 4 and 5).
Molecule 11702 and 11704 were added to treat groups respectively at a concentration gradient of 5 uM, 25 uM and 50 uM.
FACS results focus on CD4^+CD25^−CFES^+ population (T effector cells). […] As T cells proliferate and replicate, CFSE peaks extend successively to left and become less fluorescent (toward negative range). The more cell population moves to left, the stronger the proliferation.

| SMILES | survival (B16 melanoma; intraperitoneal 30 mg/kg twice per week vs DMSO control, p=0.0333, log rank) | PD-1 expression on activated CD4+ and effector memory CD8+ tumor infiltrating lymphocytes (B16 melanoma; vs DMSO control) | activated CD4+ cells among tumor infiltrating lymphocytes (FACs) (B16 melanoma; vs DMSO control) | effector memory cytotoxic CD8+ T cells among tumor infiltrating lymphocytes (FACs) (B16 melanoma; vs DMSO control) | Tumor volume (B16 melanoma; vs DMSO control, p<0.05, Anova) | effect on T effector cell proliferation (in words) (T effector cells) | most effective dose to accelerate T cell proliferation (T effector cells; T effector without T-reg) | increase of proliferated population compared to base line (T effector cells; T effector without T-reg, 5 uM) [%] | increase of proliferated population compared to base line (T effector cells; T effector without T-reg, 25 uM) [%] | increase of proliferated population compared to base line (T effector cells; T effector without T-reg, 50 uM) [%] | increase of T cell expansion compared to T control group (without molecule) (T effector cells; 5 uM) [%] | increase of T cell expansion compared to T control group (without molecule) (T effector cells; 25 uM) [%] | increase of T cell expansion compared to T control group (without molecule) (T effector cells; 50 uM) [%] | inhibition at 50 µM (T effector cells; Homo sapiens, T-cell, T effector without T-reg, 50 uM, read-out: inhibition (decrease) of T cell proliferation) [%] | inhibition at 25 µM (T effector cells; Homo sapiens, T-cell, with T-reg, 25 uM, read-out: inhibition (decrease) of T cell expanding) [%] | effect on T effector cells (T effector cells; T effector without T-reg, 5 uM) | effect on T effector cells (T effector cells; T effector without T-reg, 25 um) | decrease of proliferation compared to base line (T effector cells; with T-reg, 50 uM) [%] |
| --- | --- | --- | --- | --- | --- | --- | --- | --- | --- | --- | --- | --- | --- | --- | --- | --- | --- | --- |
| OCC1OC(Nc2ccc(-c3ccc(NC4CC(O)C(CO)O4)cc3)cc2)CC1O (stereo not shown) [RMGL171102] | lived longer | increased PD-1 expression | increased presence | increased | inhibited | highly active | around 25 uM | 47.4 | 61.7 | 52 | 34.4 | 96.7 | 107.1 | – | – | – | – | – |
| O=C(CCCCC(=O)NN=Cc1cccc(O)c1)NN=Cc1cccc(O)c1 [RMGL171104] | – | – | – | – | – | dose dependent retraction of T effector cells | – | – | – | – | – | – | – | 39.1 | 33.9 | no significant effect | no significant effect | 55.9 |
